Measured values from patent US6162828A, “Cysteine protease inhibitor” (Takeda Chemical Industries, Ltd., priority 1995, dated 2000).
Where a SMILES comes first, the peptide text is derived from it. [ ]: non-standard residue; d: D form. The star is where a group is joined. Fmoc = O=C(OCC1c2ccccc2-c2ccccc21)*; Aib = CC(C)(N)C(=O)O

Target: T1, ICE (IL-1β converting enzyme), recombinant (Homo sapiens, UniProt P29466)
T1 construct: positions corresponding to molecular weights of 25,000 and 15,800; made in house; host or cells: Sf9 insect cells (baculovirus, pVL-ICE)
T1 sequence (P29466 120-297 limits assumed): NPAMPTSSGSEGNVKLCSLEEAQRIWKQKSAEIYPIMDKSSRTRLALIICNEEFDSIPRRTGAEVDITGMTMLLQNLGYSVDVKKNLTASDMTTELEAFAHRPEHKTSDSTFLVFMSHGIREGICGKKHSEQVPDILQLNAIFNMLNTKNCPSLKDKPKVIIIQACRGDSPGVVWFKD
T1 sequence (P29466 317-404 limits assumed): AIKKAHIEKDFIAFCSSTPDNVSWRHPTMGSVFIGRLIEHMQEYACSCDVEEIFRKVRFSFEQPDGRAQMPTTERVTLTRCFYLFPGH
Assay: Determination of ICE-inhibiting activity (fluorogenic substrate Ac-Y-V-A-D-MCA)
Type: biochemical
Conditions: recombinant ICE enzyme solution, 37° C. for 20 minutes, read-out: ICE-inhibiting activity in terms of IC50 value
Description: Two ml of the ICE expression recombinant virus suspension as prepared in Reference Example 5 was added to the insect cell Sf9 cultured in 2 1 of Sf900 medium containing 5% fetal calf serum (FCS) (1.5×10^6 cells/ml) to cause infection. Post-infection cultivation was conducted at 27° C. in a spinner flask for 4 days. Cultured cells were recovered (hereinafter all operations conducted on ice), washed 3 times with PBS (-), and suspended in a hypotonic buffer (20 mM KCl, 25 mM HEPES, pH 7.4, 5 MM MgCl2, 1 MM EDTA, 1 MM PMSF, 10 μg/ml pepstatin and leupeptine) to 10^8 cells/ml. After the suspension was kept standing on ice for 20 minutes, cells were disrupted (25 times) using a Dounce homogenizer. Disrupted cells were removed via centrifugation; ammonium sulfate was added to the supernatant to 40% saturation; the precipitate fraction was removed via centrifugation. Ammonium sulfate was further added to 80% saturation; the precipitate was recovered. The precipitate was dissolved in buffer A (20 mM KCl, 25 mM HEPES, pH 7.4, 5 mM EDTA, 2 mM DTT, 1 mM PMSF, 0.1% NP-40, 10% glycerol) and dialyzed against buffer A overnight. […]
After completion of the reaction, the fluorescence intensity of free aminomethylcoumarin was determined at a wavelength of 450 nm via excitation at a wavelength of 365 nm, using a fluorometer FCA (produced by Baxter). […]

Compound CC(C)[C@H](NC(=O)OCC1c2ccccc2-c2ccccc21)C(=O)NC(C)(C)C(=O)N[C@H](C=O)CC(=O)O [Example 60, Fmoc-Val-Aib-NH--CH(CHO)CH2 COOH] (Fmoc-Val-[Aib]-Asp-aldehyde) has an IC50 of 0.019 µM.
